Laboratory results as given in patent US10538230B2, “Thiol based resin system for removal of copper ions from hydraulic fluid” (THE BOEING COMPANY, priority 2015, dated 2020).

Experiment: Removal of Cu[II] ions from hydraulic fluid with thiol compounds of structure (2), ICP measurement
Conditions: Skydrol LD-4 with about 10 ppm copper (II) acetylacetate; for [Cu] T = 24 hr.: after 24 hr. contact with equimolar amount of thiol compound; for [Cu] T = 0 hr.: before addition of the thiol compound
Description: Copper (II) acetylacetate is added to a sample of hydraulic fluid (e.g., Skydrol® LD-4 (Eastman Chemical Co. (Kingsport, Tenn. [US])), though any phosphate ester hydraulic fluid is suitable) to provide a final concentration of about 10 ppm copper (II) acetylacetate in the fluid. The amount of copper (II) is measured in the solution using an Inductively Coupled Plasma Spectrometer (ICP). An equimolar amount of a thiol compound of structure (2) is added to a portion of the copper (II) acetate-hydraulic fluid solution and the solution-mixture is mixed using a vortex mixer for 1.5 minutes. The solution-mixture is allowed to stand for 24 hours and the copper (II) content present in the solution is measured using an Inductively Coupled Plasma Spectrometer (ICP). The amount of copper sequestered or complexed by the thiol compound is determined from the difference in the copper (II) concentrations before and after addition of the thiol compound.
Table 5 presents results of Copper (II) content in aliquots of hydraulic fluid (Skydrol® LD-4) containing copper (II) acetylacetate to a final concentration of about 10 ppm copper (II) acetylacetate and contacted with an equimolar amount of the indicated thiol compounds for 24 hours.

SMILES | [Cu] T = 24 hr. [ppm] | [Cu] T = 0 hr. [ppm]
Sc1nnc(SSc2nnc(S)s2)s1 [II, 5,5′-Dithiobis(1,3,4-Thiadiazole-2(3H)-thione)] | 6.4 | 11.1
Sc1nnc(S)s1 [I, 1,3,4-Thiadiazole-2,5-dithiol] | 7.9 | 10.8
